Reference: patent publication US8273900B2, “Organic compounds” (Novartis AG, priority 2008, dated 2012)
pIC50: −log10 of the molar value.

Target: T1, human recombinant CRF-1 receptor (Homo sapiens, UniProt P34998)
T1 construct: expressed in transfected cells; host or cells: CHO cells (G418-selected)
T1 sequence (P34998 24-415): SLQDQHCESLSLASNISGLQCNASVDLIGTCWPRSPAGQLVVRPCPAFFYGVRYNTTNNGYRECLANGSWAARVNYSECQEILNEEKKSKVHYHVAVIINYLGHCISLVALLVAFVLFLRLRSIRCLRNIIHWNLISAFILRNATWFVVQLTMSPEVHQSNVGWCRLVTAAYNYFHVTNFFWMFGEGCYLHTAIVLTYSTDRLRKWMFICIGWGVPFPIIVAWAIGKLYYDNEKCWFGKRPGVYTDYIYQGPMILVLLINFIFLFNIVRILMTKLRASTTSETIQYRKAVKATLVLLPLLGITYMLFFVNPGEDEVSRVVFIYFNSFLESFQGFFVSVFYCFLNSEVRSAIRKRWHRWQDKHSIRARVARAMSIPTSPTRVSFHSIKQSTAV
Assay: CRF-1 receptor antagonism, HTRF cAMP assay in CHO cells in the presence of 1 nM CRF
Assay type: cell-based
Conditions: CHO cells expressing human recombinant CRF-1; inhibition of the effect of 1 nM CRF on cAMP
Description: The CRF-1 or CRF-2α receptor antagonistic activity of the agents of the invention has been determined in vitro in the following assay:
Chinese hamster ovary (CHO) cells expressing either the human recombinant CRF-1 or CRF-2a receptors (Chen et al., Proc Natl Acad Sci USA 90, 8967-8971, 1993; Liaw et al., Endocrinology 137, 72-77, 1996) are propagated in Dulbecco's modified Eagle medium supplemented with 10% foetal calf serum, non-essential amino acids, 100 U/ml penicillin, 100 mg/l streptomycin and 1 g/l geneticin (G418). For cyclic AMP determinations the Homogeneous Time-Resolved Fluoresce (HTRF) cAMP dynamic 2 kit (Cisbio International, France) was used as per manufacturers' instructions. CHO cells, previously cryopreserved, were thawed, centrifuged for 7 mins at 1200 rpm and resuspended in serum free media, then pipetted out onto clear bottomed black tissue culture treated 384-well microtitre plates (Corning Inc, US) at 2,000 cells per well. Compounds of the invention, prepared in DMSO, and subsequently diluted 50 fold in assay buffer (1× Hanks balanced salt solution, 0.2% (w/v) bovine serum albumin, 1.7 mM isobutylmethylxanthine and 10 mM Hepes, pH 7.4) are then added onto the cell containing plate where a further 2 fold dilution is performed and incubated for 15 min. Following incubation, buffer containing a 5 times final concentration of agonist is added to the plate and incubated for 30 min. Finally, d2 dye labelled cAMP and cryptate labeled anti-cAMP antibody, both made in lysis buffer, are added to the plate followed by a settling period of 1 hour. During the settling period cAMP produced by the cells competes with the d2 labelled cAMP for the anti-cAMP cryptate. The plate is read on the Pherastar (BMG, Germany). Increasing levels of endogenous cAMP produced by cells can be followed by a decrease of fluorescent signal and vice versa. Values represented by a change in arbitrary fluorescence units are converted into cAMP concentrations by use of a standard curve the reagents for which are supplied with the kit. Antagonist dose response curves (1 nM-30 μM) are constructed in the presence of 1 nM CRF. IC50 values of antagonists are calculated by fitting the percent inhibition of the effect of CRF by increasing concentrations of the antagonists. The fit is performed using the nonlinear logistic function of the Activitybase software package v 5.4.5.27 (IDBS, UK).

Compound	pIC50
Cc1ccncc1NC[C@H]1CC[C@@H](NC(=O)c2cc(C(F)(F)F)ccc2Cl)CC1 [Example 14.1, Cis-2-chloro-N-((1s,4s)-4-((4-methylpyridin-3-ylamino)methyl)cyclohexyl)-5-(trifluoromethyl)benzamide]	5.66
CC(Nc1ccccc1)[C@H]1CC[C@H](NC(=O)c2cc(C(F)(F)F)ccc2Cl)CC1 (stereo partly drawn) [Example 15, Trans-2-Chloro-N-[4-(1RS-phenylamino-ethyl)-cyclohexyl]-5-trifluoromethyl-benzamide]	6.97
Cc1ncc(Cl)cc1C(=O)N[C@H]1CC[C@H](Cn2nc(C)c(Cl)c2C)CC1 [Example 17, Trans-5-Chloro-N-[4-(4-chloro-3,5-dimethyl-pyrazol-1-ylmethyl)-cyclohexyl]-2-methyl-nicotinamide]	7.15
Cc1ncc(Cl)cc1C(=O)N[C@H]1CC[C@H](Cn2nc(C)c(C)c2C)CC1 [Example 18, Trans-5-Chloro-2-methyl-N-[4-(3,4,5-trimethyl-pyrazol-1-ylmethyl)-cyclohexyl]-nicotinamide]	6.24
O=C(N[C@H]1CC[C@H](CNc2cncc(F)c2)CC1)c1cc(C(F)(F)F)ccc1Cl [Example 19.1, Trans-2-chloro-N-(4-((5-fluoropyridin-3-ylamino)methyl)cyclohexyl)-5-(trifluoromethyl) benzamide]	7.59
O=C(N[C@H]1CC[C@H](CNc2ccc(F)cn2)CC1)c1cc(C(F)(F)F)ccc1Cl [Example 19.2, Trans-2-chloro-N-(4-((5-fluoropyridin-2-ylamino)methyl)cyclohexyl)-5-(trifluoromethyl) benzamide]	7.64
Cc1cc(NC[C@H]2CC[C@H](NC(=O)c3cc(C(F)(F)F)ccc3Cl)CC2)ncc1F [Example 19.26, Trans-2-chloro-N-(4-((5-fluoro-4-methylpyridin-2-ylamino)methyl)cyclohexyl)-5-(trifluoromethyl) benzamide]	7.89
O=C(N[C@H]1CC[C@H](CNc2n[nH]c3c2CCCC3)CC1)c1cc(C(F)(F)F)ccc1Cl [Example 19.49, Trans-2-chloro-N-(4-((4,5,6,7-tetrahydro-1H-indazol-3-ylamino)methyl)cyclohexyl)-5-(trifluoromethyl) benzamide]	7.51
CCc1cncc(NC[C@H]2CC[C@H](NC(=O)c3cc(C(F)(F)F)ccc3Cl)CC2)c1 [Example 19.53, Trans-2-chloro-N-(4-((5-ethylpyridin-3-ylamino)methyl)cyclohexyl)-5-(trifluoromethyl) benzamide]	7.55
Cc1cc(NC[C@H]2CC[C@H](NC(=O)c3cc(Cl)cnc3C)CC2)ncc1F [Example 19.54, Trans-5-chloro-N-(4-((5-fluoro-4-methylpyridin-2-ylamino)methyl)cyclohexyl)-2-methylnicotinamide]	7.21
Cc1ncc(Cl)cc1C(=O)N[C@H]1CC[C@H](CNc2n[nH]c3c2CCCC3)CC1 [Example 19.55, Trans-5-chloro-2-methyl-N-(4-((4,5,6,7-tetrahydro-1H-indazol-3-ylamino)methyl)cyclohexyl) nicotinamide]	6.84
COc1ncc(C)cc1NC[C@H]1CC[C@H](NC(=O)c2cc(C(F)(F)F)ccc2Cl)CC1 [Example 19.56, Trans-2-chloro-N-(4-((2-methoxy-5-methylpyridin-3-ylamino)methyl)cyclohexyl)-5-(trifluoromethyl) benzamide]	7.08
O=C(N[C@H]1CC[C@H](CNc2n[nH]c3ncccc23)CC1)c1cc(C(F)(F)F)ccc1Cl [Example 19.57, Trans-N-(4-((1H-pyrazolo[3,4-b]pyridin-3-ylamino)methyl)cyclohexyl)-2-chloro-5-(trifluoromethyl) benzamide]	7.06
Cc1ccc2[nH]nc(NC[C@H]3CC[C@H](NC(=O)c4cc(C(F)(F)F)ccc4Cl)CC3)c2c1 [Example 19.59, Trans-2-chloro-N-(4-((5-methyl-1H-indazol-3-ylamino)methyl)cyclohexyl)-5-(trifluoromethyl) benzamide]	7.06
